From article PMC10799341, “Carnosol ameliorated cancer cachexia-associated myotube atrophy by targeting P5CS and its downstream pathways” (Frontiers in Pharmacology, 2024)

Tests used:
GFP-Aldh18a1 (P5CS) = biological target: T1, GFP-Aldh18a1 (P5CS) (Mus musculus, UniProt Q9Z110); assay: microscale thermophoresis (Monolith NT.[…]); format: binding
T1 construct: GFP fusion from plasmid, tag kept; expressed in 293T cells, used as NP40 lysate
T1 sequence (Q9Z110 1-795): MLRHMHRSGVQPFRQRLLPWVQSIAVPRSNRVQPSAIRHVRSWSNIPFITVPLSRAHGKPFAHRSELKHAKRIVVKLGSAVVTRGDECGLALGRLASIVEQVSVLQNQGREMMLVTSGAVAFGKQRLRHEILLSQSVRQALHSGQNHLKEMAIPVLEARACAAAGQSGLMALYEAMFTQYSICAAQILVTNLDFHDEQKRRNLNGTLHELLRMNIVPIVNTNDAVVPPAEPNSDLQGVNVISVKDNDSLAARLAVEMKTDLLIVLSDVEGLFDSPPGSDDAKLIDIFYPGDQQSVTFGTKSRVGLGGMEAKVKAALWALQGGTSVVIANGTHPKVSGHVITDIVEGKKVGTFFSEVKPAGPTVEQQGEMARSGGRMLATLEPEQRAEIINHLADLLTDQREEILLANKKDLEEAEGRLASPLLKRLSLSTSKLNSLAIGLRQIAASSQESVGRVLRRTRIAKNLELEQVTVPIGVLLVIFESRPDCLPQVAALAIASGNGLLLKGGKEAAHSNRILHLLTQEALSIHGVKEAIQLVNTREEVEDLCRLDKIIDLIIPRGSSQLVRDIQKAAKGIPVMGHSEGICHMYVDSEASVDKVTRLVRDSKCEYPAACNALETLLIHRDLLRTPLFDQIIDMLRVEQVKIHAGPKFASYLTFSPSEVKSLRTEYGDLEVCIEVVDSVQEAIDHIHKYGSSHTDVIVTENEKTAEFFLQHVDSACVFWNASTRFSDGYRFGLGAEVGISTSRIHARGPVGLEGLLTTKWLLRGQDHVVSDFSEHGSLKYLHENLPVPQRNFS

[1] = biological target: T2, P5CS, endogenous in H9c2 cardiomyocytes (Rattus norvegicus, UniProt A0A8I6AAN3); assay: CETSA, Western blot; format: biochemical; conditions: H9c2 cell lysate, 20 μM carnosol, 30 min room temperature then 1 h at 4 °C; heated 5 min
T2 construct: gene Aldh18a1; native endogenous protein in H9c2 cell lysate; no tag; detected by Western blot
T2 sequence (A0A8I6AAN3 1-795): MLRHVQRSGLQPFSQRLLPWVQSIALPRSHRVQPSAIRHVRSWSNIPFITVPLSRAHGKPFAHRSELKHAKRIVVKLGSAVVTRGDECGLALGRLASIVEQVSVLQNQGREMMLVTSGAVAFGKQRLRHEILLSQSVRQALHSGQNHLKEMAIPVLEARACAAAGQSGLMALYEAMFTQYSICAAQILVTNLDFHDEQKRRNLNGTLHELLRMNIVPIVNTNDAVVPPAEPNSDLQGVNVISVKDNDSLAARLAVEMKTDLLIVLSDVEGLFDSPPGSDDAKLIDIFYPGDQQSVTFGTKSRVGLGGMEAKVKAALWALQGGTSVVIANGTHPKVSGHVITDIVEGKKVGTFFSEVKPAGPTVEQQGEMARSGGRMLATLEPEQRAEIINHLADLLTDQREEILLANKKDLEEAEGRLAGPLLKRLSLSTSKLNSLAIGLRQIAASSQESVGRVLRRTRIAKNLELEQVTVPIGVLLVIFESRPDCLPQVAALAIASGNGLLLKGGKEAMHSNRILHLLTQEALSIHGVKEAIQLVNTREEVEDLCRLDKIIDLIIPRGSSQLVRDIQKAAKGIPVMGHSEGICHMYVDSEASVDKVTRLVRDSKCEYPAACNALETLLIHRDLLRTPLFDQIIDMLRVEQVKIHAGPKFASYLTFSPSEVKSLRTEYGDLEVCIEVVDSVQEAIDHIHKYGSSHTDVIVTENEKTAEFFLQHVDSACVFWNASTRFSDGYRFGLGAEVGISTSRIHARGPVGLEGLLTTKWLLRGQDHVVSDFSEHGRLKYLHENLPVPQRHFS

[2] = biological target: T3, P5CS (Aldh18a1), endogenous in C2C12 myotubes (Mus musculus, UniProt Q9Z110); assay: CETSA, Western blot; format: cell-based; conditions: intact C2C12 myotubes, 20 μM carnosol, 1 h; NP40 lysate heated 5 min
T3 construct: native endogenous protein in C2C12 myotubes; no tag; detected by Western blot
T3 sequence (Q9Z110 1-795): T1 sequence (Q9Z110 1-795)

- Kd (GFP-Aldh18a1 (P5CS)): 17.4 µM
SMILES: CC(C)c1cc2c(c(O)c1O)[C@@]13CCCC(C)(C)[C@@H]1C[C@@H]2OC3=O [carnosol]
- thermal stability [1]: H9c2 cardiomyocytes also showed similar results that carnosol increased the thermal stability of P5CS
- thermal stability [2]: the thermal stability of P5CS in C2C12 was improved after the incubation of myotubes with carnosol
